Legend:
[1] = tested on: Methicillin Resistant Staphylococcus aureus strain USA 200; assay: Minimum inhibitory concentration (MIC), CLSI broth micro-dilution, S. aureus; type: cell-based; conditions: Staphylococcus aureus, MRSA / USA200; Table 6; MRSA USA 200; cation adjusted Mueller Hinton Broth + 0.002% Tween-80; 35° C., 22 hours
How it was run: (§1)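 Antibacterial potency is measured as MIC by the CLSI broth dilution method. Bacteria at OD600 0.0005 in Tween-80-supplemented cation-adjusted Mueller Hinton broth face ten twofold compound dilutions for 22 h at 35° C.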

[2] = tested on: Escherichia coli ATCC 25922; assay: Minimum inhibitory concentration (MIC), CLSI broth micro-dilution, E. coli; type: cell-based; conditions: Escherichia coli, ATCC25922, 22 h, Table 6, cation adjusted Mueller Hinton Broth + 0.002% Tween-80, 35° C.
How it was run: as §1

Row | Structure (SMILES) | MIC [1] [µM] | MIC [2] [µM]
1 | Cc1nc(-c2ccc(N3CCCCCCC3)cc2)nc(C)c1C(=O)N[C@@H](CCN)C(=O)N(C)[C@@H]1C(=O)N[C@@H](C)C(=O)N[C@H](C(=O)NCC#N)Cc2ccc(OCCN)c(c2)-c2cc1ccc2OCCN (racemic) [Compound 326, rac-(8S,11S,14S)-3,18-bis(2-aminoethoxy)-N-(cyanomethyl)-11-methyl-14-[methyl-[rac-(2S)-4-amino-2-[[2-[4-(azocan-1-yl)phenyl]-4,6-dimethyl-pyrimidine-5-carbonyl]amino]butanoyl]amino]-10,13-dioxo-9,12-diazatricyclo[13.3.1.12,6]icosa-1(18),2(20),3,5,15(19),16-hexaene-8-carboxamide] | 0.031 | 0.13
2 | CCCCCOc1ccc(-c2nc(C)c(C(=O)N[C@@H](CCN)C(=O)N(C)[C@@H]3C(=O)N[C@@H](C)C(=O)N[C@H](C(=O)NCC#N)Cc4ccc(OCCN)c(c4)-c4cc3ccc4OCCN)c(C)n2)cc1 (racemic) [Compound 328, rac-(8S,11S,14S)-3,18-bis(2-aminoethoxy)-N-(cyanomethyl)-11-methyl-14-[methyl-[rac-(2S)-4-amino-2-[[4,6-dimethyl-2-(4-pentoxyphenyl)pyrimidine-5-carbonyl]amino]butanoyl]amino]-10,13-dioxo-9,12-diazatricyclo[13.3.1.12,6]icosa-1(18),2(20),3,5,15(19),16-hexaene-8-carboxamide] | 0.0093 | 0.07
3 | Cc1nc(-c2ccc(OCCC(C)C)cc2)nc(C)c1C(=O)N[C@@H](CCN)C(=O)N(C)[C@@H]1C(=O)N[C@@H](C)C(=O)N[C@H](C(=O)NCC#N)Cc2ccc(OCCN)c(c2)-c2cc1ccc2OCCN (racemic) [Compound 329, rac-(8S,11S,14S)-3,18-bis(2-aminoethoxy)-N-(cyanomethyl)-11-methyl-14-[methyl-[rac-(2S)-4-amino-2-[[2-(4-isopentyloxyphenyl)-4,6-dimethyl-pyrimidine-5-carbonyl]amino]butanoyl]amino]-10,13-dioxo-9,12-diazatricyclo[13.3.1.12,6]icosa-1(18),2(20),3,5,15(19),16-hexaene-8-carboxamide] | 0.011 | 0.11
4 | CCCOc1ccc(-c2nc(C)c(C(=O)N[C@@H](CCN)C(=O)N(C)[C@@H]3C(=O)N[C@@H](C)C(=O)N[C@H](C(=O)NCC#N)Cc4ccc(OCCN)c(c4)-c4cc3ccc4OCCN)c(C)n2)cc1 (racemic) [Compound 330, rac-(8S,11S,14S)-3,18-bis(2-aminoethoxy)-N-(cyanomethyl)-11-methyl-14-[methyl-[rac-(2S)-4-amino-2-[[4,6-dimethyl-2-(4-propoxyphenyl)pyrimidine-5-carbonyl]amino]butanoyl]amino]-10,13-dioxo-9,12-diazatricyclo[13.3.1.12,6]icosa-1(18),2(20),3,5,15(19),16-hexaene-8-carboxamide] | 0.033 | 0.26
5 | CCCCOc1ccc(-c2nc(C)c(C(=O)N[C@@H](CCN)C(=O)N(C)[C@@H]3C(=O)N[C@@H](C)C(=O)N[C@H](C(=O)NCC#N)Cc4ccc(OCCN)c(c4)-c4cc3ccc4OCCN)c(C)n2)cc1 (racemic) [Compound 331, rac-(8S,11S,14S)-3,18-bis(2-aminoethoxy)-N-(cyanomethyl)-11-methyl-14-[methyl-[rac-(2S)-4-amino-2-[[2-(4-butoxyphenyl)-4,6-dimethyl-pyrimidine-5-carbonyl]amino]butanoyl]amino]-10,13-dioxo-9,12-diazatricyclo[13.3.1.12,6]icosa-1(18),2(20),3,5,15(19),16-hexaene-8-carboxamide] | 0.0081 | 0.13
